Assay results taken from US8394404B2, “Adhesive material and adhesive preparation” (Nitto Denko Corporation, priority 2004, dated 2013).
“Also recorded” adds a separate entry of the source.

Assay: in vitro permeability test using the skin removed from a mouse
Type: in vitro ADME
Conditions: adhesive preparation of the adhesive material of Example 3 with adhesive layer containing 5% ISDN
Protocol: Thus, the adhesive preparation of the present invention is useful as a percutaneously absorbable adhesive preparation for continuous administration of a drug into the body.
An adhesive preparation comprising the adhesive material of the above-mentioned Example 3, which has an adhesive layer containing 5% isosorbide dinitrate (ISDN) was prepared and subjected to an in vitro permeability test using the skin removed from a mouse.

**Q.** With `O=[N+]([O-])O[C@H]1CO[C@H]2[C@@H]1OC[C@H]2O[N+](=O)[O-]` [ISDN, isosorbide dinitrate] as the molecule, how does the “percutaneous absorption of ISDN” value read?
**A.** percutaneous absorbability of ISDN was confirmed; also recorded: percutaneous absorption of ISDN was confirmed
